# Data published in patent US20110251285A1, “COMBINATIONS OF PRESERVATIVES FOR OPHTHALMIC COMPOSITIONS” (ALLERGAN, INC., priority 2010, published 2011).
# Tested on: S. aureus, P. aeruginosa, c. albicans, E. coli and/or A. niger
# Assay: abbreviated preservative efficacy test against USP, EP-A and EP-B criteria
# Type: cell-based
# Settings: 20 ppm BAK alone
# Experimental: Each of these formulations is tested by performing an abbreviated preservative efficacy test using test organisms S. aureus, P. aeruginosa, c. albicans, E. coli and/or A. niger. The formulations are tested against United States Pharmacopeia Preservative Efficacy Test (USP), European Pharmacopeia Efficacy Test-A (EP-A) and European Pharmacopeia Efficacy Test-B (EP-B) criteria as indicated. Ten (10) ml of each formulation is challenged with approximately 10^5 cfu/ml of test organism. At appropriate time intervals, the amount of bacterial and fungal survivors are assayed using Dey Engley broth (DE) as the neutralizer media. DE, along with filtration, is sufficient at neutralizing the antimicrobial agents in the compositions. One (1) ml of each sample is diluted into nine (9) ml of DE. One (1) ml of the 1:10 dilution is filtered through a 0.45 µm filter and washed with 100 ml of a saline/polysorbate 80 solution. After washing the filtrate a second time with 100 ml of saline/polysorbate 80 solution, the filtrate is placed onto a TSA plate for bacteria and SAB for fungi.
substance,measurement,value
benzalkonium chloride [BAK],Ph Eur-B & A criteria,failed
